Measured values taken from patent US12662491B2 (Redona Therapeutics, Inc., priority 2020, dated 2026).

biological target: T1, Zcchc11 enzyme (Homo sapiens, UniProt Q5TAX3); assay: TUTase assay (Zcchc11 assay, Lin28a-dependent polyuridylation of pre-let-7); format: biochemical; details: LIN28A 10 nM, Zcchc11 0.2 nM, 5′-fluorescein pre-let-7 miRNA 2 nM, UTP 5 uM, room temperature, 30 minutes pre-incubation; read-out: Potency Lin28a-dep Z11 IC50
T1 construct: made in house; host or cells: HEK293 cells (Zcchc11); E. coli Rosetta II (LIN28A)
T1 sequence (Q5TAX3 212-1420): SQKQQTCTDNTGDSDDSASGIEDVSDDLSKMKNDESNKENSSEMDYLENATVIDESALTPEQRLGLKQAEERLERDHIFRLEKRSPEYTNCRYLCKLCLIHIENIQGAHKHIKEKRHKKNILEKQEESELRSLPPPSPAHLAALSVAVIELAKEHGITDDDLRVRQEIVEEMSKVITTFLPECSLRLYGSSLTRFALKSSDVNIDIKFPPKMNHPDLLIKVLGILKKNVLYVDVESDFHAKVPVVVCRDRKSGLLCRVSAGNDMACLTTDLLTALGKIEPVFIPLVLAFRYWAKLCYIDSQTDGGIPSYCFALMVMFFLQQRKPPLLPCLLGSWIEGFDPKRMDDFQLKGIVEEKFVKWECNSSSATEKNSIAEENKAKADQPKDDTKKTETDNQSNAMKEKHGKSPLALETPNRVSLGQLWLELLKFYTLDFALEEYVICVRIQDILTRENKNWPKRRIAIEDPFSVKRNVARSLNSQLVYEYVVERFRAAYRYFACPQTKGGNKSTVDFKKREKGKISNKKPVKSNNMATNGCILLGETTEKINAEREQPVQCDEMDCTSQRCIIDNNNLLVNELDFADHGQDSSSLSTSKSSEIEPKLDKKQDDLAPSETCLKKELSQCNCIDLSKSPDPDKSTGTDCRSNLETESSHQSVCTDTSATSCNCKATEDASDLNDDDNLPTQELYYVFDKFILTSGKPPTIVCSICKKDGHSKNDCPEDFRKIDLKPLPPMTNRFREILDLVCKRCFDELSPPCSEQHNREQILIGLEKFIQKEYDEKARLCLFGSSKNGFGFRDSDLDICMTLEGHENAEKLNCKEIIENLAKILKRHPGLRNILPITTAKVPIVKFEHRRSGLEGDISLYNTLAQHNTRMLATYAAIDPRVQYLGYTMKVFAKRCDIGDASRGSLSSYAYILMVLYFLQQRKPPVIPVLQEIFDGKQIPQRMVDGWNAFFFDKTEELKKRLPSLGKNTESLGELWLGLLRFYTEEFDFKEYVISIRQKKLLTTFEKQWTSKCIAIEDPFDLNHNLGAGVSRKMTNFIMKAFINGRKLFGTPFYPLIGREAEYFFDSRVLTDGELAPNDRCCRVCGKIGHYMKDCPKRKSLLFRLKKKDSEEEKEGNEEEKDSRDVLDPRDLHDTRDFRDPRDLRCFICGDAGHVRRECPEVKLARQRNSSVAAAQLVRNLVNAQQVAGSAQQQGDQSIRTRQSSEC
Method in brief: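 LIN28A (10 nM) in pH 7.3 HEPES/KCl/MgCl2/DTT buffer was mixed with serially diluted compound, then 0.2 nM truncated human Zcchc11 and 2 nM labeled pre-let-7 were added for 30 min at room temperature. UTP (5 uM) and quench probe (4 nM) then started the reaction. Linear early rates gave IC50 values.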

| IC50 | Compound |
| --- | --- |
| 1 to 10 µM | COCCN1CCC(n2cc(C(=O)O)c(=O)c3cc(Cl)c(N4CCC[C@@H]4COc4ncccc4Cl)cc32)C1 (stereo partly drawn) [Example 38, 6-Chloro-7-[(2R)-2-{[(3-chloropyridin-2-yl)oxy]methyl}-pyrrolidin-1-yl]-1-[1-(2-methoxyethyl)pyrrolidin-3-yl]-4-oxo-1,4-dihydroquinoline-3-carboxylic acid] |
| 10 to 50 µM | CN(C)CCN1CCC(n2cc(C(=O)O)c(=O)c3cc(Cl)c(N4CCC[C@@H]4COc4ncccc4Cl)cc32)C1 (stereo partly drawn) [Example 39, 6-chloro-7-[(2R)-2-{[(3-chloropyridin-2-yl)oxy]methyl}pyrrolidin-1-yl]-1-{1-[2-(dimethylamino)ethyl]pyrrolidin-3-yl}-4-oxo-1,4-dihydroquinoline-3-carboxylic acid] |
| ≤ 1 µM | Nc1ccc(-n2cc(C(=O)O)c(=O)c3cc(Cl)c(N4CCC[C@@H]4COc4ncccc4Cl)cc32)cn1 [Example 40, (R)-1-(6-aminopyridin-3-yl)-6-chloro-7-(2-(((3-chloropyridin-2-yl)oxy)methyl)pyrrolidin-1-yl)-4-oxo-1,4-dihydroquinoline-3-carboxylic acid] |
| ≤ 1 µM | O=C(O)c1cn(-c2cnccn2)c2cc(N3C[C@@H](F)C[C@@H]3COc3ncccc3Cl)c(Cl)cc2c1=O [Example 41, 6-chloro-7-[(2R,4S)-2-{[(3-chloropyridin-2-yl)oxy]methyl}-4-fluoropyrrolidin-1-yl]-4-oxo-1-(pyrazin-2-yl)-1,4-dihydroquinoline-3-carboxylic acid] |
| ≤ 1 µM | CN(C)C1CN(c2ccc(-n3cc(C(=O)O)c(=O)c4cc(C#N)c(N5C6CCC5(COc5ncccc5F)CC6)cc43)cn2)C1 [Example 42, 6-cyano-1-(6-(3-(dimethylamino)azetidin-1-yl)pyridin-3-yl)-7-(1-(((3-fluoropyridin-2-yl)oxy)methyl)-7-azabicyclo[2.2.1]heptan-7-yl)-4-oxo-1,4-dihydroquinoline-3-carboxylic acid] |
| ≤ 1 µM | O=C(O)c1cn(-c2cnc(OCCO)cn2)c2cc(N3CCC[C@@H]3COc3ncccc3Cl)c(Cl)cc2c1=O [Example 45, 6-chloro-7-[(2R)-2-[[(3-chloropyridin-2-yl)oxy]methyl]pyrrolidin-1-yl]-1-[5-(2-hydroxyethoxy)pyrazin-2-yl]-4-oxoquinoline-3-carboxylic acid] |
| ≤ 1 µM | O=C(O)c1cn(-c2cnc3c(n2)COC3)c2cc(N3CCC[C@@H]3COc3ncccc3Cl)c(Cl)cc2c1=O [Example 46, 6-chloro-7-[(2R)-2-[[(3-chloropyridin-2-yl)oxy]methyl]pyrrolidin-1-yl]-1-[5H,7H-furo[3,4-b]pyrazin-2-yl]-4-oxoquinoline-3-carboxylic acid] |
| ≤ 1 µM | CN(C)C1CN(c2ccc(-n3cc(C(=O)O)c(=O)c4cc(Cl)c(N5C(COc6ncccc6Cl)CCS5(=O)=O)cc43)cn2)C1 (centres unmarked) [Example 47, 6-chloro-7-(3-(((3-chloropyridin-2-yl)oxy)methyl)-1,1-dioxidoisothiazolidin-2-yl)-1-(6-(3-(dimethylamino)azetidin-1-yl)pyridin-3-yl)-4-oxo-1,4-dihydroquinoline-3-carboxylic acid] |
| ≤ 1 µM | CN(C)C1CN(c2ccc(-n3cc(C(=O)O)c(=O)c4cc(Cl)c(N5CCC6CC65COc5ncccc5Cl)cc43)cn2)C1 (centres unmarked) [Example 48, 6-chloro-7-(1-[[(3-chloropyridin-2-yl)oxy]methyl]-2-azabicyclo[3.1.0]hexan-2-yl)-1-[6-[3-(dimethylamino)azetidin-1-yl]pyridin-3-yl]-4-oxoquinoline-3-carboxylic acid] |
| ≤ 1 µM | CN(C)C(=O)OC[C@H]1CCCN1c1cc2c(cc1Cl)c(=O)c(C(=O)O)cn2-c1ccc(N2CC(N(C)C)C2)nc1 [Example 49, 6-chloro-1-[6-[3-(dimethylamino)azetidin-1-yl]pyridin-3-yl]-7-[(2R)-2-[[(dimethylcarbamoyl)oxy]methyl]pyrrolidin-1-yl]-4-oxoquinoline-3-carboxylic acid] |
| ≤ 1 µM | NCCOc1cccnc1OC[C@H]1CCCN1c1cc2c(cc1Cl)c(=O)c(C(=O)O)cn2-c1ccc(Br)nc1 [Example 50, (R)-7-(2-(((3-(2-aminoethoxy)pyridin-2-yl)oxy)methyl)pyrrolidin-1-yl)-1-(6-bromopyridin-3-yl)-6-chloro-4-oxo-1,4-dihydroquinoline-3-carboxylic acid] |
| ≤ 1 µM | CN(C)C1CN(c2ccc(-n3cc(C(=O)O)c(=O)c4cc(C#N)c(N5CCC[C@@]5(C)COc5ncccc5F)cc43)cn2)C1 [Example 51, (S)-6-cyano-1-(6-(3-(dimethylamino)azetidin-1-yl)pyridin-3-yl)-7-(2-(((3-fluoropyridin-2-yl)oxy)methyl)-2-methylpyrrolidin-1-yl)-4-oxo-1,4-dihydroquinoline-3-carboxylic acid] |
| 10 to 50 µM | Cc1cc2c(=O)c(C(=O)O)cn(-c3ccc(N4CC(N(C)C)C4)nc3)c2cc1N1C(=O)CC1COc1ccccn1 (centres unmarked) [Example 52, 1-(6-(3-(dimethylamino)azetidin-1-yl)pyridin-3-yl)-6-methyl-4-oxo-7-(2-oxo-4-((pyridin-2-yloxy)methyl)azetidin-1-yl)-1,4-dihydroquinoline-3-carboxylic acid] |
| ≤ 1 µM | CN(C)c1ccc(-n2cc(C(=O)O)c(=O)c3cc(Cl)c(N4CCC[C@@H]4COc4ncccc4OCCN)cc32)cn1 [Example 53, 7-[(2R)-2-([[3-(2-Aminoethoxy)pyridin-2-yl]oxy]methyl)pyrrolidin-1-yl]-6-chloro-1-[6-(dimethylamino)pyridin-3-yl]-4-oxoquinoline-3-carboxylic acid] |
| 10 to 50 µM | CN(C)C1CN(c2ccc(-n3cc(C(=O)O)c(=O)c4cc(C#N)c(N5C(=O)CC[C@@H]5COc5ncccc5Cl)cc43)cn2)C1 [Example 54, (R)-7-(2-(((3-chloropyridin-2-yl)oxy)methyl)-5-oxopyrrolidin-1-yl)-6-cyano-1-(6-(3-(dimethylamino)azetidin-1-yl)pyridin-3-yl)-4-oxo-1,4-dihydroquinoline-3-carboxylic acid] |
| 10 to 50 µM | O=C(O)c1cn2c3cc(c(Cl)cc3c1=O)N1CCC[C@@H]1COc1nc(ccc1Cl)OCCCNc1ccc-2cn1 [Example 55, (R)-26,63-dichloro-24-oxo-21,24-dihydro-5,7-dioxa-11-aza-2(1,7)-quinolina-1(5,2),6(2,6)-dipyridina-3(1,2)-pyrrolidinacycloundecaphane-23-carboxylic acid] |
| ≤ 1 µM | CN(C)C1CN(c2ccc(-n3cc(C(=O)O)c(=O)c4cc(Cl)c(N5CCC[C@]5(C)COc5ncccc5Cl)nc43)cn2)C1 [Example 56, 6-chloro-7-[(2R)-2-[[(3-chloropyridin-2-yl)oxy]methyl]-2-methylpyrrolidin-1-yl]-1-[6-[3-(dimethylamino)azetidin-1-yl]pyridin-3-yl]-4-oxo-1,8-naphthyridine-3-carboxylic acid] |
| ≤ 1 µM | CN(C)C1CN(c2ccc(-n3cc(C(=O)O)c(=O)c4cc(Cl)c(N5CC6(CCC6)CC5COc5ncccc5Cl)cc43)cn2)C1 (centres unmarked) [Example 57, 6-Chloro-7-(7-(((3-chloropyridin-2-yl)oxy)methyl)-6-azaspiro[3.4]octan-6-yl)-1-(6-(3-(dimethylamino)azetidin-1-yl)pyridin-3-yl)-4-oxo-1,4-dihydroquinoline-3-carboxylic acid] |
| ≤ 1 µM | CN(C)C1CN(c2ccc(-n3cc(C(=O)O)c(=O)c4cc(Cl)c(N5CC(C)(C)C[C@@H]5COc5ncccc5Cl)cc43)cn2)C1 [Example 58, 6-chloro-7-[(2R)-2-[[(3-chloropyridin-2-yl)oxy]methyl]-4,4-dimethylpyrrolidin-1-yl]-1-[6-[3-(dimethylamino)azetidin-1-yl]pyridin-3-yl]-4-oxoquinoline-3-carboxylic acid] |
| ≤ 1 µM | CN(C)C1CN(c2ccc(-n3cc(C(=O)O)c(=O)c4cc(Cl)c(N5CCC(C)(C)C5COc5ncccc5Cl)cc43)cn2)C1 (centres unmarked) [Example 59, 6-chloro-7-(2-{[(3-chloropyridin-2-yl)oxy]methyl}-3,3-dimethylpyrrolidin-1-yl)-1-{6-[3-(dimethylamino)azetidin-1-yl]pyridin-3-yl}-4-oxoquinoline-3-carboxylic acid] |
